NC(N)=O
solubility (mole fraction)
Conditions | in ethanol | in isobutanol | in isopentanol | in isopropanol | in methanol | in n-butanol | in n-pentanol | in n-propanol | in water
293.15 K | 0.0395 | 0.017 | 0.0146 | 0.0253 | 0.0845 | 0.0163 | 0.0137 | 0.0246 | 0.252
303.15 K | 0.0548 | 0.0242 | 0.0162 | 0.0306 | 0.104 | 0.0209 | 0.0183 | 0.0402 | 0.294
318.15 K | 0.0874 | 0.0302 | 0.026 | 0.0425 | 0.165 | 0.0292 | 0.0241 | 0.0384 | 0.36
333.15 K | 0.127 | 0.0469 | 0.0368 | 0.058 | 0.225 | 0.0412 | 0.0354 | 0.0722 | 0.41
343.15 K | 0.155 | 0.0529 | 0.0451 | 0.0669 | 0.266 | 0.0504 | 0.0424 | 0.0704 | 0.465

Reference: BigSolDB 2.1
